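Grown in 96-well plates, cells were treated for 48 hours with each compound at five concentrations. Insufficient inhibition: endpoint recorded as highest concentration tested. GI50 is the concentration that inhibits growth by half. TGI: concentration producing complete growth inhibition.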
What was measured:
Experiment in all cases: NCI tumour cell line growth inhibition, 48 h
T-47D breast = test system: T-47D breast
MDA-MB-231 breast = test system: MDA-MB-231 breast
SK-MEL-5 melanoma = test system: SK-MEL-5 melanoma
CCRF-CEM leukemia = test system: CCRF-CEM leukemia
OVCAR-8 ovarian = test system: OVCAR-8 ovarian
HS 578T breast = test system: HS 578T breast
SF-295 CNS = test system: SF-295 CNS
786-0 renal = test system: 786-0 renal
NCI-H23 lung = test system: NCI-H23 lung
MALME-3M melanoma = test system: MALME-3M melanoma

## COc1cc2c3c(n(CCCNCCCNCCN)c(=O)c2cc1OC)-c1cc2c(cc1C3=O)OCO2
T-47D breast
  GI50: 46.8 µM
  TGI: > 100 µM
MDA-MB-231 breast
  GI50: 28.8 µM
  TGI: > 100 µM
SK-MEL-5 melanoma
  GI50: 35.7 µM
  TGI: > 100 µM
CCRF-CEM leukemia
  GI50: 10.1 µM
  TGI: 32.2 µM
OVCAR-8 ovarian
  GI50: 35.4 µM
  TGI: > 100 µM
HS 578T breast
  GI50: 48.7 µM
  TGI: > 100 µM
SF-295 CNS
  GI50: > 100 µM
  TGI: > 100 µM
786-0 renal
  GI50: 26.2 µM
  TGI: 82 µM
NCI-H23 lung
  GI50: 24.7 µM
  TGI: 78.7 µM

## O=C(Nc1ccccc1)OC1OC(COC(=O)c2ccccc2)C(OC(=O)c2ccccc2)C1OS(=O)(=O)c1ccc([N+](=O)[O-])cc1 (stereo not drawn)
T-47D breast
  TGI: > 100 µM
SK-MEL-5 melanoma
  TGI: > 100 µM
CCRF-CEM leukemia
  TGI: > 100 µM
OVCAR-8 ovarian
  TGI: > 100 µM
HS 578T breast
  TGI: > 100 µM
SF-295 CNS
  TGI: > 100 µM
786-0 renal
  TGI: > 100 µM
NCI-H23 lung
  TGI: > 100 µM
MALME-3M melanoma
  TGI: > 100 µM

## CCC(C)C1=C(O)[N+]2([O-])Oc3ccc(C4=C(O)C(=O)C(c5ccc(O)cc5)=C(O)C4=O)cc3OC2(C(C)CC)C(=O)N1O (stereo not drawn)
MDA-MB-231 breast
  GI50: 15.5 µM
  TGI: 63.8 µM
SK-MEL-5 melanoma
  GI50: 6.82 µM
  TGI: 27.3 µM
CCRF-CEM leukemia
  GI50: 13.1 µM
  TGI: 76.7 µM
OVCAR-8 ovarian
  GI50: 6.34 µM
  TGI: > 100 µM
HS 578T breast
  GI50: 7.24 µM
  TGI: > 100 µM
SF-295 CNS
  GI50: 13.9 µM
  TGI: > 100 µM
786-0 renal
  GI50: 26.1 µM
  TGI: > 100 µM
NCI-H23 lung
  GI50: 13.3 µM
  TGI: > 100 µM
MALME-3M melanoma
  GI50: 14.7 µM
  TGI: 48.2 µM

## CC1=C(C(=O)Nc2ccc(F)c(Cl)c2)C(c2cccc(Oc3ccccc3)c2)NC(=S)N1 (stereo not drawn)
T-47D breast
  GI50: 40.4 µM
  TGI: > 50 µM
MDA-MB-231 breast
  GI50: 10.7 µM
  TGI: 22.9 µM
SK-MEL-5 melanoma
  GI50: 10.2 µM
  TGI: 19.6 µM
CCRF-CEM leukemia
  GI50: 17.7 µM
  TGI: 47.6 µM
OVCAR-8 ovarian
  GI50: 11.3 µM
  TGI: 26.9 µM
HS 578T breast
  GI50: 13.3 µM
  TGI: 29.2 µM
SF-295 CNS
  GI50: 15.6 µM
  TGI: > 50 µM
786-0 renal
  GI50: 10.8 µM
  TGI: 21.5 µM
NCI-H23 lung
  GI50: 19.3 µM
  TGI: 39.4 µM

## COCCc1n(Cc2ccc3ccccc3c2)c2ccccc2[n+]1Cc1ccc2ccccc2c1
MDA-MB-231 breast
  GI50: 0.536 µM
  TGI: 1.94 µM
SK-MEL-5 melanoma
  GI50: 0.371 µM
  TGI: 1.36 µM
786-0 renal
  GI50: 1.28 µM
  TGI: 2.76 µM
MALME-3M melanoma
  GI50: 0.443 µM
  TGI: 1.72 µM

## COc1ccc(S(=O)(=O)Nc2c(/C=C\c3cc(OC)c(OC)c(OC)c3)ccc(OC)c2O)cc1
MDA-MB-231 breast
  GI50: 0.0503 µM
  TGI: 2.35 µM
SK-MEL-5 melanoma
  GI50: 0.0363 µM
  TGI: 0.201 µM
CCRF-CEM leukemia
  GI50: 0.0301 µM
  TGI: > 100 µM
OVCAR-8 ovarian
  GI50: 0.0466 µM
  TGI: > 100 µM
HS 578T breast
  GI50: 0.047 µM
  TGI: > 100 µM
SF-295 CNS
  GI50: 0.0339 µM
  TGI: > 100 µM
786-0 renal
  GI50: 0.375 µM
  TGI: 28 µM
NCI-H23 lung
  GI50: 0.052 µM
  TGI: > 100 µM
MALME-3M melanoma
  GI50: 15.1 µM
  TGI: > 100 µM

## CC1=CP(=O)(c2ccccc2)C=C(C)C1=C(Cl)Cl (stereo not drawn)
SK-MEL-5 melanoma
  TGI: 31.2 µM
CCRF-CEM leukemia
  TGI: 19.2 µM
OVCAR-8 ovarian
  TGI: > 100 µM
SF-295 CNS
  TGI: 34.6 µM
786-0 renal
  TGI: 16.5 µM
NCI-H23 lung
  TGI: 34.9 µM

## COS(C)(=O)=O
T-47D breast
  TGI: > 2 µM
MDA-MB-231 breast
  TGI: > 2 µM
CCRF-CEM leukemia
  TGI: > 2 µM
OVCAR-8 ovarian
  TGI: > 2 µM
HS 578T breast
  TGI: > 2 µM
786-0 renal
  TGI: > 2 µM
NCI-H23 lung
  TGI: > 2 µM
MALME-3M melanoma
  TGI: > 2 µM
